Patent US10028942B2 (priority 2013, dated 2018)

The compounds below were run against T1, DLK (Homo sapiens, UniProt Q12852) (assay: biochemical).
T1 sequence (Q12852 1-520): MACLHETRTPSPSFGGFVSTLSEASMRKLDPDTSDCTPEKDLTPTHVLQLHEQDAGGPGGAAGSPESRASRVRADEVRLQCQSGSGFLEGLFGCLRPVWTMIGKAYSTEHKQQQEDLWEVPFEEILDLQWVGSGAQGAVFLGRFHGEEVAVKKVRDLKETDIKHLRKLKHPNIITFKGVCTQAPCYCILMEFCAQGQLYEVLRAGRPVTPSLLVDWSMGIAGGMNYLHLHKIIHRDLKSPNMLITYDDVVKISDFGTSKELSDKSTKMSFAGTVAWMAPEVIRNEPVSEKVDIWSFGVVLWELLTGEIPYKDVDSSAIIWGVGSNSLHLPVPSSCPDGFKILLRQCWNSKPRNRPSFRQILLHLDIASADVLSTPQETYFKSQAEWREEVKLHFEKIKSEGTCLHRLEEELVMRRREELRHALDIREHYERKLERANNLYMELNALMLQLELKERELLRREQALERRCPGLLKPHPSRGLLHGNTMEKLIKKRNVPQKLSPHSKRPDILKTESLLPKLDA
Work on `Nc1ncc(-c2cc(C3CCOCC3)n(C3CC(F)(F)C3)n2)cc1F` [Compound 37, 5-(1-(3,3-difluorocyclobutyl)-5-(tetra-hydro-2H-pyran-4-yl)-1H-pyrazol-3-yl)-3-fluoropyridin-2-amine] yielded a Ki of over 1000 nM.
`CC(C)n1nc(-c2cnc(N)c(C(F)F)c2)cc1C(C)(C)C#N` [Compound 5, 2-(3-(6-amino-5-(difluoromethyl)pyridin-3-yl)-1-isopropyl-1H-pyrazol-5-yl)-2-methylpropanenitrile] gave a Ki of over 1000 nM.
For `CC(C)n1nc(-c2cnc3c(c2)C(C)(C)C(=O)N3)cc1C1CCN(C2COC2)CC1` [Compound 80, 5-(1-isopropyl-5-(1-(oxetan-3-yl)pipe-ridin-4-yl)-1H-pyrazol-3-yl)-3,3-di-methyl-1H-pyrrolo[2,3-b]pyridin-2 (3H)-one], the Ki was over 1000 nM.
`Cc1cc(-c2cc(C3CCN(C4COC4)CC3)n(C(C)C)n2)cnc1N` [Compound 82, 5-(1-isopropyl-5-(1-(oxetan-3-yl)pipe-ridin-4-yl)-1H-pyrazol-3-yl)-3-meth-ylpyridin-2-amine] showed a Ki of over 1000 nM.
Work on `Cc1c[nH]c2ncc(-c3cc(C4CCOC4)n(CC4CC4)n3)cc12` (racemic) [Compound 13, 5-(1-(cyclopropylmethyl)-5-(tetrahydrofuran-3-yl)-1H-pyrazol-3-yl)-3-methyl-1H-pyrrolo[2,3-b]pyridine] yielded a Ki of 29 nM.
Compound `CC(C)n1nc(-c2cnc3c(c2)CCCN3)cc1C1CCN(C2COC2)CC1` [Compound 96, 6-(1-isopropyl-5-(1-(oxetan-3-yl)pipe-ridin-4-yl)-1H-pyrazol-3-yl)-1,2,3,4-tetahydro-1,8-naphthyridine] has a Ki of over 1000 nM.
`CC(C)n1nc(-c2cnc3c(c2)C(C)(C)C(=O)N3)cc1C1CN(C2COC2)C1` [Compound 61, 5-(1-isopropyl-5-(1-(oxetan-3-yl)aze-tidin-3-yl)-1H-pyrazol-3-yl)-3,3-dimeth-yl-1H-pyrrolo[2,3-b]pyridin-2(3H)-one] gave a Ki of over 1000 nM.
Work on `CC(C)n1nc(-c2cnc3c(c2)CC(=O)N3)cc1C1CCN(C2COC2)CC1` [Compound 73, 5-(1-isopropyl-5-(1-(oxetan-3-yl)pipe-ridin-4-yl)-1H-pyrazol-3-yl)-1H-pyrro-lo[2,3-b]pyridin-2(3H)-one] yielded a Ki of over 1000 nM.
